BigSolDB 2.1

C[C@H]1[C@H](C)CC[C@]2(C(=O)O)CC[C@]3(C)C(=CC[C@@H]4[C@@]5(C)CC[C@H](O)C(C)(C)[C@@H]5CC[C@]43C)[C@H]12
solubility (mole fraction)
Settings	278.2 K	283.2 K	288.2 K	293.2 K	298.2 K	303.2 K	308.2 K	313.2 K	318.2 K
in MIBK	0.00094	0.00104	0.00106	0.00109	0.00127	0.00128	0.0015	0.00169	0.00184
in MTBE	0.00167	0.00175	0.0021	0.00248	0.00288	0.00305	0.00311	0.00315	0.00338
in n-butanol	0.00153	0.00168	0.00226	0.00266	0.00334	0.00387	0.00411	0.00466	0.00504
